Measured values taken from patent US20230117205A1, “B7-H4 ANTIBODY-DRUG CONJUGATES FOR THE TREATMENT OF CANCER” (SEAGEN INC., priority 2021, published 2023).

Tests used:
[1] = tested on: SKBR3, MX-1, and 293T-B7-H4; assay: NK cell-mediated ADCC; type: cell-based, human; settings: NK effector cells, 4 hours
Source text: Antibodies directed to cell surface antigens can elicit direct killing of antibody-coated cells, including induction of ADCC.
Human PBMCs were thawed into pre-warmed R10+ Media (RPMI 1640 (Gibco #11875-093) with 10% HI-FBS (Gibco #16140-071), 1× sodium pyruvate (Gibco #11360-070), and 1× GlutaMax (Gibco #35050-061)) and then an EasySep NK isolation kit (StemCell #17955) was used to purify NK cells. Target tumor cells were lifted off using TrypLE Express (Gibco #12604-021) and then plated into a U-bottom plate (Falcon #353077) at 40,000 cells/well (50 μL/well) for MX-1 and 293T-B7-H4 (HEK 293T cells engineered to express human B7-H4) and 20,000 cells/well (50 μL/well) for SKBR3 cell line. […] (NOTE: actual starting concentration was 6000 ng/mL to account for the inherent 3× dilution of the assay.) Then 200,000 cells/well (50 μL/well) of isolated NK cells were plated into the U-bottom plate (effector: tumor ratios were as follows: NK:SKBR3 cells 10:1; NK:MX1 cells 5:1, NK:293T-B7-H4 cells 5:1). Appropriate controls included: positive control mAb and ADC and negative non-binding control mAb and ADC, NK cells only control, target cells only control, target cells maximum lysis control, and media only control. […] A CytoTox 96 Non-Radioactive Cytotoxicity Assay kit (Promega #G1780) was used to develop the signal, which was read using 490 nm wavelength on a SpectraMax 190 instrument.

[2] = tested on: MX-1 xenograft model; assay: MX-1 xenograft, Study MX1-2; type: in vivo, SCID mice; settings: 3 mg/kg, three weekly doses, i.p.
Procedure: Tumor volume was measured twice weekly until study day 84.
Female SCID mice were implanted with 5×10^5 MX1 tumor cells in 25% Matrigel H C (Corning #354248) subcutaneously. Once tumor volumes reached 100 mm^3, mice were randomized into treatment groups of 5 mice each and dosed with 3 mg/kg of ADC every seven days for three total doses (q7dx3). Tumor volumes were measured twice per week, and animals were euthanized when tumor volume reached 700-1000 mm^3. Stock concentrations of ADC were diluted to a desired concentration (with 0.01% Tween20 in PBS) and injected i.p. into each treatment group.

[3] = tested on: OVCAR3 xenograft model; assay: OVCAR3 xenograft, Study OVCAR3-e314; type: in vivo, SCID mice; settings: 3 mg/kg, three weekly doses, i.v.
Procedure: Tumor volume was measured twice weekly until study day 60.
Female SCID mice were implanted with OVCAR3 tumor fragments (˜1 mm^3) subcutaneously at Charles River Discovery Services (NC). Once tumor volumes reached 150-200 mm^3, mice were dosed with 3 mg/kg of ADC every seven days for three total doses (q7dx3). Tumor volumes were measured twice weekly, and animals were euthanized when tumor volume reached 1000 mm^3. Stock concentrations of ADC were diluted to a desired concentration (with PBS) and injected i.v. into each treatment group.
Tumor growth inhibition (TGI) for each treatment group compared to the untreated group was analyzed on study day 26 as follows: % TGI=[1−(([…])/MTVuntreated)]*100, where MTV is the mean tumor volume. Statistical significance was determined using the Mann-Whitney U test (two-tailed).

[4] = Non-human primate (NHP) and rat tox study; type: in vivo, rat and cynomolgus monkey
Source text: The nonclinical safety profile of SGN-B7H4V supports the proposed initial clinical development plan. […] The hematologic toxicity is consistent with the mechanism of action (MOA) for MMAE.

[5] = tested on: MDA-MB-468 tumor and PBMC co-cultures; assay: Tumor/PBMC co-culture assay; type: cell-based, human; settings: tumor/immune cell co-cultures
Procedure: Tumor cells were transfected with Incucyte® Cytolight red lentivirus per manufacturer's instructions and stable polyclonal cell populations expressing mKate2 (red fluorescent protein, RFP) were generated under puromycin selection. Live-cell killing assays were performed by seeding RFP+ MDA-MB-468 tumor cells in 96-well flat bottom plates (Corning #3603) at a variety of densities (3,750-10,000 cells/well) and grown overnight. The following day, PBMCs isolated from healthy donors were added at 15:1 or 25:1 effector to target (E:T) ratios and cultures were treated with the indicated small molecule drugs or ADCs. To evaluate immune cell activation, supernatants were harvested between 120 and 144 hours post treatment and MIP-1β production was evaluated by Milliplex MAP Human cytokine/chemokine/growth factor panel A (12-plex) Immunology Multiple Assay (Millipore Sigma #HCYTA-60K-12C). […] Following the final wash, cell pellets were resuspended in 200 μL staining buffer and analyzed on an NXT Attune flow cytometer (ThermoFisher). Flow cytometry data were analyzed using FlowJo software and monocyte activation was quantified by measuring the MFI of CD86 staining on CD14+ monocytes within the RFP−/live/CD19−/CD3−/CD14+ gate.

SGN-B7H4V: ADC of fully human IgG1 anti-B7-H4 mAb conjugated to monomethyl auristatin E (MMAE) via a protease-cleavable valine-citrulline linker (vedotin)
ADCC response [1]: comparable ADCC responses | anti-tumor activity (tumor volume) [2]: regression of tumor volumes in all mice | mice with sustained regression [2]: 4 of the 5 | mean tumor volume compared to the untreated group [3]: reduction in mean tumor volume | Tumor growth inhibition (TGI) ([3]; study day 26, compared to untreated): 48% | primary target organs of toxicity ([4]; pivotal GLP and non-GLP studies): hematological system, testes, and ovaries | tolerability ([4]; rat and cynomolgus monkey): tolerated in the rat and cynomolgus monkey | CD86 on CD14+ monocytes [5]: upregulation of the costimulatory molecule CD86 | release of MIP-1β/CCL4 [5]: led to the release of the chemoattractant MIP-1β/CCL4
